Experiment [1] has as its target T1, sweet taste substance receptor protein (hTAS1R2 and hTAS1R3) (Homo sapiens, UniProt Q7RTX0+Q8TE23).
T1 construct: HA (N); expressed in transfected cells
T1 sequence (Q8TE23 20-839): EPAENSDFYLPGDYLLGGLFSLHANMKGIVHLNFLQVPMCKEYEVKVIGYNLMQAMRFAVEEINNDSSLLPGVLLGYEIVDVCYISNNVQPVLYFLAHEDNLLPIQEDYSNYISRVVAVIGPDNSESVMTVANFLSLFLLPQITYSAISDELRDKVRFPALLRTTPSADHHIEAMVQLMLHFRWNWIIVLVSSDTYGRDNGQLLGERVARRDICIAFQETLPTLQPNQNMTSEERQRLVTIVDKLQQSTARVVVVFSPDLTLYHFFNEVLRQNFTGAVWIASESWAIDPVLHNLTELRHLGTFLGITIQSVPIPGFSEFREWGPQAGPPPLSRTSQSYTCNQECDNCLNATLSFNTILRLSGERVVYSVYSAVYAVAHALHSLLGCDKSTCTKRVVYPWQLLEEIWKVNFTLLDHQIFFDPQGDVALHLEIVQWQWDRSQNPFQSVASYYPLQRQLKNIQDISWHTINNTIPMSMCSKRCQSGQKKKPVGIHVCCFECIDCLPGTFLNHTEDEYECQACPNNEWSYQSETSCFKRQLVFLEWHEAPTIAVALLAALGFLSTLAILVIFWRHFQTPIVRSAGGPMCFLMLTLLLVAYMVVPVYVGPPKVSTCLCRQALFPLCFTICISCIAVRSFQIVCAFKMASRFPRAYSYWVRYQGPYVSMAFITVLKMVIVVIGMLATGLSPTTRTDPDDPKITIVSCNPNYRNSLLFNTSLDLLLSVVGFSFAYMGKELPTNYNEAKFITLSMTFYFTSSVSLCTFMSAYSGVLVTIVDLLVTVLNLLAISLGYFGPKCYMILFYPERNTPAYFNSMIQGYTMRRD
T1 sequence (Q7RTX0 21-852): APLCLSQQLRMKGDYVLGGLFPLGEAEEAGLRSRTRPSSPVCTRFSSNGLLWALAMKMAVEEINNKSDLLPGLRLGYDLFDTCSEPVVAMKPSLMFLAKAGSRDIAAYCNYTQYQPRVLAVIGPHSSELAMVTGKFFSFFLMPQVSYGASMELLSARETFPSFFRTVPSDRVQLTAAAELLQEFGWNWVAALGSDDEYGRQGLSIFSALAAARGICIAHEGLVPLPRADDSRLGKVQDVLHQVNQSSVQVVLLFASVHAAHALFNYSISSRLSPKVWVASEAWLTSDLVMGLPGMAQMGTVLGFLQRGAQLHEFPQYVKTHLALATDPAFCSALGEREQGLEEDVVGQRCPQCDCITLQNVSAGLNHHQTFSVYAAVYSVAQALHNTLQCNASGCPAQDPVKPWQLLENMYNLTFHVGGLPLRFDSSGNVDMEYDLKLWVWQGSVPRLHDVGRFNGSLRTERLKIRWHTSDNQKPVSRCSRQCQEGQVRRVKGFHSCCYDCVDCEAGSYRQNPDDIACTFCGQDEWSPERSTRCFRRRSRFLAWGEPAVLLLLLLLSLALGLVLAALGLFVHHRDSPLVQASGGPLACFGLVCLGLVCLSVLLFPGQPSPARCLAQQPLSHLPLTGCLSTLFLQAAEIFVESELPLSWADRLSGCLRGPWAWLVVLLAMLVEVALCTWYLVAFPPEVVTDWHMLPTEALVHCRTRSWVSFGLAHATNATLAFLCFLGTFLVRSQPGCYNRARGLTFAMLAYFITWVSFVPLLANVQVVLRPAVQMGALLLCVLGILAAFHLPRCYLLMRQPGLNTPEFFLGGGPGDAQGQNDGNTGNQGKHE
The experiment is described as follows: nanovesicle based field effect transistor taste sensor, real-time source-drain current / conductance. The experiment is classed as biochemical. To be noted: for signal change: 100 mM added.

Experiment [2] concerns the target T1, sweet taste substance receptor protein (hTAS1R2 and hTAS1R3). The experiment is described as above. The experiment is classed as biochemical. Particulars: for fit of sensor signals to the hill equation model: FIG. 4C; for signal generating from the taste sensor (sensitivity ΔG/G0): FIG. 3C. As for the experimental part:
A sweet taste substance (Sigma Aldrich, USA) with a 1 mM concentration was dissolved into PBS (phosphate buffered saline; Gibco, USA) containing 2 mM CaCl2 therein. The resulting solution was sequentially diluted 1/10 times to acquire a diluent. The diluent was exposed to the nanovesicle based field effect transistor manufactured in the embodiment 2. A current between the source electrode and drain electrode was measured in a real time manner to check a reaction magnitude. A sensitivity ΔG/G0 of a sweet taste substance relative to sucrose in the nanovesicle based field effect transistor was measured in a real time manner.

Experiment [3] addresses T2, heterodimeric receptor including the hTAS1R2 and hTAS1R3 (Homo sapiens, UniProt Q7RTX0+Q8TE23).
T2 construct: HA (N); expressed in transfected cells
T2 sequence (Q8TE23 20-839): T1 sequence (Q8TE23 20-839)
T2 sequence (Q7RTX0 21-852): T1 sequence (Q7RTX0 21-852)
The experiment is described as follows: Ca2+ dependent fluorescence signal in transformed HEK-293 cell line. The class given is cell-based. Particulars: 10 mM sucrose added, Fura 2-AM, ratio of 340/380 nm stimulation, emission 510 nm, FIG. 2C. As for the experimental part:
(§1) A signal transfer via a sweet taste substance of each of the nanovesicle and HEK-293 cell was checked wherein the HEK-293 cell has the expressed heterodimeric receptor including the hTAS1R2 and hTAS1R3 manufactured in the embodiment 1, and the nanovesicle is separated from the HEK-293 cell.
(§2) For this, the transformed HEK-293 cell line was incubated for three or more days. Then, 5 μm Fura 2-AM (acetoxymethyl)(calcium indicator, Invitrogen) was loaded on the cells in an imaging buffer solution (NaCl 140 mM, KCl 5 mM, MgCl2 1 mM, CaCl2 2 mM, HEPES 10 mM, Glucose 10 mM, 0.1% Pluronic F-127, pH 7.4). A non-specific esterase residing in the cell performs hydrolysis for an AM ester group to be changed into a form sensitive to Ca^2+ ions. […]
(§3) After three times cleaning using respective solutions, a ligand and ATP (100 uM) for a Ca^2+ dependent fluorescence signal was injected thereto, and, dual stimulations (340 nm, and 380 nm) were applied thereto. Thereafter, a fluorescence signal due to Ca^2+ at 510 nm was measured using a spectrofluorophotometer. The fluorescence signal was obtained at 2 seconds intervals. A final result was shown as a ratio between fluorescence strengths resulting from the dual stimulations.

Experiment [4] has as its target T3, nanovesicle including TAS1R2 and TAS1R3 (Homo sapiens, UniProt Q7RTX0+Q8TE23).
T3 construct: HA (N); expressed in transfected cells
T3 sequence (Q8TE23 20-839): T1 sequence (Q8TE23 20-839)
T3 sequence (Q7RTX0 21-852): T1 sequence (Q7RTX0 21-852)
The experiment is described as follows: Ca2+ dependent fluorescence signal in nanovesicle separated from transformed HEK-293 cell line. The experiment is classed as biochemical. Particulars: 10 mM sucrose added, FIG. 2F. On the procedure: as §1, §2, §3

Peptide text beside a SMILES is read from it.

For `O=C[C@H](O)[C@@H](O)[C@H](O)[C@H](O)C(=O)O` [D-glucuronic acid], in experiment [1] (FIG. 4B), the signal change entry was “no signal change”.
Consider `COC(=O)[C@H](Cc1ccccc1)NC(=O)[C@@H](N)CC(=O)O` [aspartame] (H-Asp-Phe-OMe), for which the “fit of sensor signals to the hill equation model” value (“fit of sensor signals” for short) in experiment [2] was “comply with the hill equation model”. In experiment [2] (compared with sucrose), the “sensitivity as a working substance relative to sucrose” value is listed as “more sensitive”.
Take `OC[C@H]1O[C@@H](O[C@H]2[C@H](O)[C@@H](O)[C@H](O)O[C@@H]2CO)[C@H](O)[C@@H](O)[C@@H]1O` [cellobios]: the signal change entry in experiment [1] (FIG. 4B) is reported as “no signal change”.
On to `O=C(CO)[C@@H](O)[C@H](O)[C@H](O)CO` [fructose], for which the “fit of sensor signals” value in experiment [2] was “comply with the hill equation model”.
In the case of `OC[C@H]1O[C@@](CO)(O[C@H]2O[C@H](CO)[C@@H](O)[C@H](O)[C@H]2O)[C@@H](O)[C@@H]1O` [sucrose], the “signal generating from the taste sensor (sensitivity ΔG/G0)” value was “decreases” in experiment [2] (100 uM concentration) and “rapidly decreases” in experiment [2] (500 uM concentration). Also, the “fit of sensor signals” value in experiment [2] is “comply with the hill equation model”. For the same compound, the reaction magnitude decrease result in experiment [1] (500 uM added, FIG. 4B) was “about 5%”. Moreover, the “detection in real samples” value in experiment [1] (1 mM concentration, contained in coffee and Darjeeling tea, FIG. 4D) is reported as “may be detected”. For the same compound, the fluorescence emission strength entry in experiment [3] and in experiment [4] was “relatively increases” throughout.

The values are drawn from US20250264461A1, “NANOVESICLE COMPRISING HETERODIMERIC G-PROTEIN COUPLED RECEPTOR, METHOD FOR PREPARING NANOVESICLE, FIELD EFFECT TRANSISTOR-BASED TASTE SENSOR COMPRISING NANOVESICLE, AND METHOD FOR MANUFACTURING TASTE SENSOR” (Seoul National University R&DB Foundation, priority 2013, published 2025).
